Results from patent US20260138961A1, “MODULATORS OF MITOCHONDRIAL DNA REPLICATION” (Pretzel Therapeutics, Inc., priority 2022, published 2026).

Biological target: T1, POLγA:Y955C (Homo sapiens, UniProt P54098, Y955C)
T1 sequence (P54098 1-1239 Y955C): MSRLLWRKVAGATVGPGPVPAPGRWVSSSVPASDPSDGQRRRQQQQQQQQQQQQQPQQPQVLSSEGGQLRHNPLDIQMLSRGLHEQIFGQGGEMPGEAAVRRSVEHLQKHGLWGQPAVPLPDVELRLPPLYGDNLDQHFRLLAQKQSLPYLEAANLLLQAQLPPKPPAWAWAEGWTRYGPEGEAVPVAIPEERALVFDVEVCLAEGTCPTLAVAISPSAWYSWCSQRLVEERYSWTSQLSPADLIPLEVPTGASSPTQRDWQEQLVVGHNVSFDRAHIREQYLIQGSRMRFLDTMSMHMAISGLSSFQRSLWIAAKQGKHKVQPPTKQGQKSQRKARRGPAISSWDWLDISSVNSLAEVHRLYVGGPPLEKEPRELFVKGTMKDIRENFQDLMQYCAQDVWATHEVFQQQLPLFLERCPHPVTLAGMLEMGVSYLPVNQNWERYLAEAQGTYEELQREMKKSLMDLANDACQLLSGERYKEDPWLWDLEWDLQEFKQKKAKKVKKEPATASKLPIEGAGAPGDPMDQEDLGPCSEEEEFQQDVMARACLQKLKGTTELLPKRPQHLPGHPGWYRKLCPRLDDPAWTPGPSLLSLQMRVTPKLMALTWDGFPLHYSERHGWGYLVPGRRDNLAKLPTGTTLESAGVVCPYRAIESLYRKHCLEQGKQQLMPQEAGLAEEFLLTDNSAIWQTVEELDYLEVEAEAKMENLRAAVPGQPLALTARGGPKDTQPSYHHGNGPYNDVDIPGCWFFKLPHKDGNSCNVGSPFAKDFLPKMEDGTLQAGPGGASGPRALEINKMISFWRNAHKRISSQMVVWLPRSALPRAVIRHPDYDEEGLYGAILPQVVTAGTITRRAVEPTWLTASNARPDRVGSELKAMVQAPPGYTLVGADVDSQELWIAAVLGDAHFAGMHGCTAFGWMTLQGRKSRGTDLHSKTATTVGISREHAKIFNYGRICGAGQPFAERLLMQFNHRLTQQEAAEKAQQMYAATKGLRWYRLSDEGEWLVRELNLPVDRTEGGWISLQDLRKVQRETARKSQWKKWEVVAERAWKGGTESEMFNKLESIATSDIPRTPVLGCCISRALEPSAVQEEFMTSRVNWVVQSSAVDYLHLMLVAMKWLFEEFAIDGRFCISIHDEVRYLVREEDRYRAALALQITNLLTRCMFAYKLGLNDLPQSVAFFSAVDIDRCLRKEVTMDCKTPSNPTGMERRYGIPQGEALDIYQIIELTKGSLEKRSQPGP
T1 sequence (Q9UHN1 1-485 partner): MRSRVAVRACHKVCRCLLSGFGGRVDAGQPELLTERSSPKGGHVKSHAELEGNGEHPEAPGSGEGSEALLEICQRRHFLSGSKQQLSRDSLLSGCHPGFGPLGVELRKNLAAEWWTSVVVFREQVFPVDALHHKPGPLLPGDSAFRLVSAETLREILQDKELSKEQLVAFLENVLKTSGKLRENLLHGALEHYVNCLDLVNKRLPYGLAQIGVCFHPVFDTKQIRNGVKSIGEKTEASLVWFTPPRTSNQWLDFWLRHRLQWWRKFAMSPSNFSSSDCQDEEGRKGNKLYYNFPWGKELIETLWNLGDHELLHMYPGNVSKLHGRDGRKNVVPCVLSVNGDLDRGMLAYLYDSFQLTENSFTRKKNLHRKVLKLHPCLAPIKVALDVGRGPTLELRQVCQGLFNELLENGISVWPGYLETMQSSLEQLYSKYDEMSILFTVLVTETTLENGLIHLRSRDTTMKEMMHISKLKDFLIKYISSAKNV
Test: DNA polymerization assay, POLγA:Y955C mutant
Format: biochemical
Details: stimulation of polymerase activity, primed M13mp18 ssDNA, 37° C. 2 hours
Procedure: DNA Polymerization Assay to Monitor Effects on Human Wildtype POLγ and Four Disease-Causing Mutant Variants of Human POLγ.
The ability of small molecules to stimulate the polymerase activity of POLγ was analyzed in a quantitative fluorescence SYBR Green I assay with fluorescence intensity (FI) readout.
In the presence of dNTPs, wild type human POLγ and mutant derivatives thereof were incubated with single-stranded, circular M13mp18 ssDNA hybridized to a short DNA oligonucleotide that functions as a primer for initiation of DNA synthesis. POLγ and mutant derivatives thereof will extend the primer and use the M13mp18 molecule as a template to synthesize long stretches of double-stranded DNA. SYBR Green I, which is a double-stranded DNA-binding dye, was used to quantify formation of double-stranded DNA in the reaction. When bound to double-stranded DNA, SYBR Green I fluorescence increases by up to 100-fold.
The assay was performed in the 384-well plate format. Upon addition of compounds, changes in double-stranded DNA synthesis activity can be monitored by following effects on fluorescent intensity.
The reactions also contained the accessory POLγB subunit, and the human mitochondrial single-stranded DNA binding protein (mtSSB).
The DNA template mixture used in the assay contained 0.5 nM primed M13 mp18 ssDNA, 400 nM mtSSB, 0.1 mM Tris-HCl (pH 8.0), 0.1 mM dNTP, 10 mM MgCl2, 0.1 mg/mL BSA, 1 mM TCEP solution, and 0.02% Triton X-100. The DNA template mixture for the wild type protein contained either 100 μM dNTP, 1 μM dNTP, or 0.1 μM dNTP, designated in Table 2 as 100 μM, 1 μM, and 0.1 μM, respectfully.
Microplates with compounds (0.1 μL in each well) to be tested in the assay were prepared from 10 mM compound stocks in 100% DMSO, and equal amounts of DMSO without any compound were added to positive and negative control wells.
The protein mixture was dispensed (5 μL into each well) into compound plates and incubated at 37° C. for 15 minutes. After incubation, 5 μL of the DNA template mixture was dispensed into each well. The plates were then incubated at 37° C. for 2 hours.
During incubation, a combined stop buffer and detection reagent solution was prepared. The buffer contained 25 mM EDTA (pH 8.0), 0.02% Triton X-100, and SYBR Green I [Invitrogen] diluted 10,000× (for fluorescent readout). EDTA will stop the enzymatic reaction by chelating magnesium ions.

Compound	AC50 [µM]
Cc1csc(-c2cccc(NS(=O)(=O)c3cc(C)c(Cl)cc3C)c2)n1 [Example 20, 4-chloro-2,5-dimethyl-N-(3-(4-methylthiazol-2-yl)phenyl)benzenesulfonamide]	0.3
Cc1cnc(-c2cccc(NS(=O)(=O)c3cc(C)c(Cl)cc3C)c2)s1 [Example 21, 4-chloro-2,5-dimethyl-N-(3-(5-methylthiazol-2-yl)phenyl)benzenesulfonamide]	1
Cc1ccc(C)c(S(=O)(=O)Nc2cccc(-c3nccs3)c2)c1 [Example 60]	0.4
Cc1cc(S(=O)(=O)Nc2cccc(-c3cc(C4CC4)[nH]n3)c2)c(C)cc1Cl [Example 64, 4-chloro-N-(3-(5-cyclopropyl-1H-pyrazol-3-yl)phenyl)-2,5-dimethylbenzenesulfonamide]	> 100
CC[C@@H]1CCCN1C(=O)c1cccc(NS(=O)(=O)c2cc(C)c(Cl)cc2C)c1 [Example 65, (R)-4-chloro-N-(3-(2-ethylpyrrolidine-1-carbonyl)phenyl)-2,5-dimethylbenzenesulfonamide]	2

The remaining lines, values ahead:

AC50 [µM]	Compound
2	Cc1cc(-c2cccc(NS(=O)(=O)c3cc(C)c(Cl)cc3C)c2)n[nH]1 [Example 66, 4-chloro-2,5-dimethyl-N-(3-(5-methyl-1H-pyrazol-3-yl)phenyl)benzenesulfonamide]
2	Cc1cc(S(=O)(=O)Nc2cccc(-c3cc[nH]n3)c2)c(C)cc1Cl [Example 68, N-(3-(1H-pyrazol-3-yl)phenyl)-4-chloro-2,5-dimethylbenzenesulfonamide]
0.4	Cc1cc(S(=O)(=O)Nc2ccc3ccn(C(C)C)c3c2)c(C)cc1Cl [Example 69, 4-chloro-N-(1-isopropyl-1H-indol-6-yl)-2,5-dimethylbenzenesulfonamide]
7	Cc1nc2ccc(NS(=O)(=O)c3cc(C)c(Cl)cc3C)cc2o1 [Example 70, 4-chloro-2,5-dimethyl-N-(2-methylbenzo[d]oxazol-6-yl)benzenesulfonamide]
2	Cc1cc2cc(NS(=O)(=O)c3cc(C)c(Cl)cc3C)ccc2[nH]1 [Example 184, 4-chloro-2,5-dimethyl-N-(2-methyl-1H-indol-5-yl)benzenesulfonamide]
